Experiments:
Type in all cases: in vivo
Pharbitis purpurea = assay: Pre-emergence herbicidal action, greenhouse, 320 g/ha; conditions: application rate 320 g/ha, Table B12
From the text: (§1) Seeds of monocotyledonous and dicotyledonous weed plants and crop plants were placed in plastic or organic planting pots and covered with soil. The compounds of the invention, formulated in the form of wettable powders (WP) or as emulsion concentrates (EC), were then applied to the surface of the covering soil as aqueous suspension or emulsion with addition of 0.5% additive at a water application rate equivalent to […]. After the treatment, the pots were placed in a greenhouse and kept under good growth conditions for the test plants. After about 3 weeks, the effect of the preparations is scored visually in comparison with untreated controls as percentages. For example, 100% activity=the plants have died, 0% activity=like control plants. Tables B1 to B14 below show the effects of selected compounds of the general formula (I) according to Tables I.1 to I.150 on various harmful plants and at an application rate corresponding to 320 g/ha, which were obtained by the experimental procedure mentioned above.

Polygonum convolvulus = assay: as above; conditions: application rate 320 g/ha, scored visually after about 3 weeks vs untreated controls
From the text: as §1

Stellaria media [1] = assay: as above; conditions: application rate 320 g/ha, scored visually after about 3 weeks vs untreated controls
From the text: as §1

Amaranthus retroflexus [2] = assay: as above; conditions: application rate 320 g/ha, scored visually after about 3 weeks vs untreated controls
From the text: as §1

Hordeum murinum = assay: as above; conditions: application rate 320 g/ha, Table B14
From the text: as §1

Digitaria sanguinalis = assay: as above; conditions: application rate 320 g/ha, Table B9
From the text: as §1

Viola tricolor [3] = assay: as above; conditions: application rate 320 g/ha, Table B8
From the text: as §1

Abutilon theophrasti [4] = assay: as above; conditions: application rate 320 g/ha, scored visually after about 3 weeks vs untreated controls
From the text: as §1

Matricaria inodora [5] = assay: as above; conditions: application rate 320 g/ha, scored visually after about 3 weeks vs untreated controls
From the text: as §1

Setaria viridis [6] = assay: as above; conditions: application rate 320 g/ha, Table B11
From the text: as §1

Avena fatua = assay: as above; conditions: application rate 320 g/ha, scored visually after about 3 weeks vs untreated controls
From the text: as §1

Alopecurus myosuroides = assay: as above; conditions: application rate 320 g/ha, scored visually after about 3 weeks vs untreated controls
From the text: as §1

Stellaria media [7] = assay: Post-emergence herbicidal action, greenhouse, 320 g/ha; conditions: application rate 320 g/ha, rated visually after about 3 weeks vs untreated controls
Experimental: (§2) Seeds of monocotyledonous and dicotyledonous weeds and crop plants were placed in sandy loam in plastic or wood-fiber pots, covered with soil and cultivated in a greenhouse under controlled growth conditions. 2 to 3 weeks after sowing, the test plants were treated at the one-leaf stage. The compounds of the invention, formulated in the form of wettable powders (WP) or as emulsion concentrates (EC), were then sprayed onto the green parts of the plants as aqueous suspension or emulsion with addition of 0.5% additive at a water application rate of […] (converted). After the test plants had been kept in the greenhouse under optimum growth conditions for about 3 weeks, the activity of the preparations was rated visually in comparison to untreated controls. For example, 100% activity=the plants have died, 0% activity=like control plants. Tables A1 to A14 below show the effects of selected compounds of the general formula (I) according to Tables 1.1 to 1.150 on various harmful plants and at an application rate corresponding to 320 g/ha, which were obtained by the experimental procedure mentioned above.

Amaranthus retroflexus [8] = assay: as above; conditions: application rate 320 g/ha, rated visually after about 3 weeks vs untreated controls
Experimental: as §2

Viola tricolor [9] = assay: as above; conditions: application rate 320 g/ha, rated visually after about 3 weeks vs untreated controls
Experimental: as §2

Setaria viridis [10] = assay: as above; conditions: application rate 320 g/ha, rated visually after about 3 weeks vs untreated controls
Experimental: as §2

Veronica persica = assay: Pre-emergence herbicidal action, greenhouse, 320 g/ha; conditions: application rate 320 g/ha, Table B13
From the text: as §1

Stellaria media [11] = assay: Herbicidal post-emergence action (Part 2), 1280 g/ha; conditions: application rate 1280 g/ha, rated visually after about 3 weeks, Table C7
Experimental: (§3) Seeds of mono- and dicotyledonous weed plants were placed in plastic pots in sandy loam soil (doubly sown with in each case one species of mono- or dicotyledonous weed plants per pot), covered with soil and cultivated in a greenhouse under controlled growth conditions. 2 to 3 weeks after sowing, the test plants were treated at the one-leaf stage. The compounds of the invention, formulated in the form of wettable powders (WP) or as emulsion concentrates (EC), were applied onto the green parts of the plants as aqueous suspension or emulsion with addition of 0.5% additive at a water application rate of 600 liters per hectare (converted). After the test plants had been kept in the greenhouse under optimum growth conditions for about 3 weeks, the activity of the preparations was rated visually in comparison to untreated controls. For example, 100% activity=the plants have died, 0% activity=like control plants. Tables C1 to C7 below show the effects of selected compounds of the general formula (I) according to Tables 1.1 to 1.150 on various harmful plants and at an application rate corresponding to 1280 g/ha, which were obtained by the experimental procedure mentioned above.

Amaranthus retroflexus [12] = assay: as above; conditions: application rate 1280 g/ha, rated visually after about 3 weeks, Table C5
Experimental: as §3

Poa annua [13] = assay: as above; conditions: application rate 1280 g/ha, rated visually after about 3 weeks, Table C2
Experimental: as §3

Matricaria inodora [14] = assay: as above; conditions: application rate 1280 g/ha, rated visually after about 3 weeks, Table C6
Experimental: as §3

Echinochloa crus-galli = assay: Herbicidal pre-emergence action (Part 2), 1280 g/ha; conditions: application rate 1280 g/ha, scored visually after about 3 weeks, Table D1
From the text: (§4) Seeds of mono- and dicotyledonous weed plants were placed in plastic pots in sandy loam soil (doubly sown with in each case one species of mono- or dicotyledonous weed plants per pot) and covered with soil. The compounds of the invention, formulated in the form of wettable powders (WP) or as emulsion concentrates (EC), were then applied onto the surface of the covering soil as aqueous suspension or emulsion with addition of 0.5% additive at a water application rate of 600 liters per hectare (converted). After the treatment, the pots were placed in a greenhouse and kept under good growth conditions for the test plants. After about 3 weeks, the effect of the preparations was scored visually in comparison with untreated controls as percentages. For example, 100% activity=the plants have died, 0% activity=like control plants. Tables D1 to D8 below show the effects of selected compounds of the general formula (I) according to Tables 1.1 to 1.150 on various harmful plants and at an application rate corresponding to 1280 g/ha, which were obtained by the experimental procedure mentioned above.

Stellaria media [15] = assay: as above; conditions: application rate 1280 g/ha, scored visually after about 3 weeks, Table D8
From the text: as §4

Amaranthus retroflexus [16] = assay: as above; conditions: application rate 1280 g/ha, scored visually after about 3 weeks, Table D6
From the text: as §4

Poa annua [17] = assay: as above; conditions: application rate 1280 g/ha, scored visually after about 3 weeks, Table D3
From the text: as §4

Abutilon theophrasti [18] = assay: as above; conditions: application rate 1280 g/ha, scored visually after about 3 weeks, Table D5
From the text: as §4

Matricaria inodora [19] = assay: as above; conditions: application rate 1280 g/ha, scored visually after about 3 weeks, Table D7
From the text: as §4

Setaria viridis [20] = assay: as above; conditions: application rate 1280 g/ha, scored visually after about 3 weeks, Table D4
From the text: as §4

Row | SMILES | Pharbitis purpurea (efficacy in %) (Pharbitis purpurea) [%] | Polygonum convolvulus (efficacy in %) (Polygonum convolvulus) [%] | Stellaria media (efficacy in %) (Stellaria media [1]) [%] | Amaranthus retroflexus (efficacy in %) (Amaranthus retroflexus [2]) [%] | Digitaria sanguinalis (efficacy in %) (Digitaria sanguinalis) [%] | Viola tricolor (efficacy in %) (Viola tricolor [3]) [%] | Abutilon theophrasti (efficacy in %) (Abutilon theophrasti [4]) [%] | Matricaria inodora (efficacy in %) (Matricaria inodora [5]) [%] | Setaria viridis (efficacy in %) (Setaria viridis [6]) [%] | Avena fatua (efficacy in %) (Avena fatua) [%] | Alopecurus myosuroides (efficacy in %) (Alopecurus myosuroides) [%] | Amaranthus retroflexus (efficacy in %) (Amaranthus retroflexus [8]) [%] | Veronica persica (efficacy in %) (Veronica persica) [%] | Amaranthus retroflexus (Amaranthus retroflexus [12]) [%] | Poa Annua (Poa annua [13]) [%] | Amaranthus retroflexus (Amaranthus retroflexus [16]) [%] | Poa Annua (Poa annua [17]) [%] | Matricaria inodora (Matricaria inodora [19]) [%] | other results
1 | CN1CCC(O)N(c2noc(C(C)(C)C)c2F)C1=O (stereo not shown) [I.1-206] | 80 | 90 | 100 | 90 | 100 | 100 | 90 | 100 | 90 | 80 | 80 | – | – | – | – | – | – | – | Hordeum murinum (efficacy in %) (Hordeum murinum): 80%
2 | CN1CCC(O)N(c2cc(C(F)(F)F)c(Cl)cn2)C1=O (stereo not shown) [I.1-451] | – | 90 | 100 | 90 | 90 | 100 | – | 100 | 90 | – | – | 100 | – | – | – | – | – | – | Stellaria media (efficacy in %) (Stellaria media [7]): 100%; Viola tricolor (efficacy in %) (Viola tricolor [9]): 100%; Setaria viridis (efficacy in %) (Setaria viridis [10]): 80%
3 | CN1CCC(O)N(c2cc(C(F)(F)F)c(Br)cn2)C1=O (stereo not shown) [I.1-464] | 100 | 100 | 100 | 100 | 100 | 100 | 100 | 100 | 100 | 80 | 80 | 100 | 100 | – | – | – | – | – | Stellaria media (efficacy in %) (Stellaria media [7]): 90%; Viola tricolor (efficacy in %) (Viola tricolor [9]): 100%
4 | CN1CCC(O)N(c2cc(C(F)(F)F)ncn2)C1=O (stereo not shown) [I.1-506] | 100 | 100 | 100 | 90 | 100 | 100 | 80 | 100 | 100 | 80 | 90 | 100 | 80 | – | – | – | – | – | Setaria viridis (efficacy in %) (Setaria viridis [10]): 100%
5 | CC(=O)OC1CCN(C)C(=O)N1c1cc(C(C)(C)C)no1 (stereo not shown) [I.2-290, 3-(3-tert-Butyl-1,2-oxazol-5-yl)-1-methyl-2-oxohexahydropyrimidin-4-yl Acetate] | – | – | – | – | – | – | – | – | – | – | – | – | – | 100 | 90 | 100 | 100 | 100 | Stellaria media (Stellaria media [11]): 100%; Matricaria inodora (Matricaria inodora [14]): 90%; Echinochloa crus-galli (Echinochloa crus-galli): 90%; Stellaria media (Stellaria media [15]): 100%; Abutilon theophrasti (Abutilon theophrasti [18]): 100%; Setaria viridis (Setaria viridis [20]): 90%
6 | CC(=O)OC1CCN(C)C(=O)N1C1=NOC(C)(C)C1 (stereo not shown) [I.2-709] | 100 | 100 | 100 | – | 90 | 100 | 80 | 100 | – | – | 90 | – | 100 | – | – | – | – | – | –
7 | CCCC(=O)OC1N(c2cc(C(C)(C)C)on2)C(=O)N(C)CC1(C)C (stereo not shown) [I.66-162] | – | – | – | – | – | – | – | – | – | – | – | – | – | 100 | 90 | 90 | 100 | 100 | Echinochloa crus-galli (Echinochloa crus-galli): 90%; Abutilon theophrasti (Abutilon theophrasti [18]): 100%
8 | CC(=O)OC1N(c2cc(C(C)(C)C)on2)C(=O)N(C)CC12CCC2 (stereo not shown) [I.82-162] | – | – | – | – | – | – | – | – | – | – | – | – | – | 100 | 90 | 100 | 100 | 100 | Stellaria media (Stellaria media [15]): 90%

Source: US20200390100A1, “SUBSTITUTED N-HETEROCYCLYL- AND N-HETEROARYL-TETRAHYDROPYRIMIDINONES AND THE SALTS THEREOF, AND THE USE OF SAME AS HERBICIDAL ACTIVE SUBSTANCES” (Bayer Aktiengesellschaft, priority 2017, published 2020)
